From EPA's ToxRefDB 2

Key:
dog = conditions: Chronic toxicity; beagle; Oral; Capsule; dose end: 52 week; group: systemic; systemic / in life observation / body weight / body weight gain
rat [1] = conditions: Prenatal developmental toxicity study, sprague dawley, Oral, Gavage/Intubation, dose end: 15 GD, group: maternal
rat [2] = conditions: Multigenerational reproductive toxicity study, wistar, Oral, Feed, dose end: 2 generation
rat [3] = conditions: Multigenerational reproductive toxicity study, long evans, Oral, Feed, dose end: 2 generation
rat [4] = conditions: Multigenerational reproductive toxicity study, wistar, Oral, Feed, dose end: 2 generation; remark: listed apart in the source
rat [5] = conditions: Subchronic oral toxicity in rodents, other, Gavage/Intubation, dose end: 90 day, group: systemic, systemic / pathology microscopic / stomach / inflammation + systemic / pathology gross / stomach / thickened + systemic / pathology …
rat [6] = conditions: Prenatal developmental toxicity study, other, Oral, Gavage/Intubation, dose end: 15 GD
rat [7] = conditions: Prenatal developmental toxicity study, other, Oral, Gavage/Intubation, dose end: 15 GD; remark: listed apart in the source
mouse [8] = conditions: Prenatal developmental toxicity study; cd1; Oral; Gavage/Intubation; dose end: 16 GD; group: developmental; developmental / developmental landmark / vaginal opening / vaginal opening + systemic / in life observation / body weight / litter weight + …
mouse [9] = conditions: Multigenerational reproductive toxicity study; cd1; Oral; Feed; dose end: 2 generation; group: reproductive; reproductive / reproductive performance / reproductive performance other / NOS + reproductive / reproductive performance / fertility / …
mouse [10] = conditions: Multigenerational reproductive toxicity study, cd1, Oral, Feed, dose end: 1 generation
rat [11] = conditions: Prenatal developmental toxicity study, wistar, Oral, Gavage/Intubation, dose end: 18 GD
mouse [12] = conditions: Prenatal developmental toxicity study, cd1, Injection, Subcutaneous, dose end: 16 GD
mouse [13] = conditions: Developmental neurotoxicity study, other, Oral, Gavage/Intubation, dose end: 147 PND, group: cannot be grouped
[14] = systemic / in life observation / body weight / body weight gain + systemic / in life observation / food consumption / food consumption + …
[15] = group: offspring, systemic / in life observation / body weight / offspring (pup) weight
[16] = group: offspring, systemic / in life observation / body weight / offspring (pup) weight + developmental / offspring survival late / lactation index / …
[17] = group: parental, systemic / in life observation / body weight / body weight + systemic / in life observation / body weight / body weight gain
[18] = group: parental, systemic / in life observation / body weight / body weight + systemic / in life observation / body weight / body weight gain + systemic / …
[19] = group: reproductive, reproductive / offspring survival early / litter size / litter size
[20] = group: offspring, systemic / in life observation / body weight / offspring (pup) weight + developmental / offspring survival late / viability index / …
[21] = group: offspring, systemic / in life observation / clinical signs / body cold to touch + systemic / in life observation / clinical signs / emaciation + …
[22] = group: developmental, developmental / developmental malformation / bone / curled + developmental / developmental malformation / mouth / jaw / cleft palate + …
[23] = group: maternal, systemic / in life observation / body weight / body weight gain
[24] = group: developmental, developmental / developmental malformation / bone / bent + developmental / developmental malformation / mouth / jaw / cleft palate + …
[25] = group: maternal, systemic / in life observation / body weight / body weight
[26] = group: maternal, systemic / in life observation / body weight / body weight + reproductive / reproductive performance / resorptions / resorptions + systemic…
[27] = group: developmental, systemic / in life observation / body weight / offspring (pup) weight + systemic / organ weight / epididymis / absolute + systemic / organ …
[28] = group: maternal, reproductive / reproductive performance / gestational length / gestational length + systemic / in life observation / body weight / body …
[29] = group: developmental, developmental / developmental malformation / general / [other] + developmental / developmental landmark / nipple development / nipple …
[30] = systemic / clinical chemistry / [other] / [other] + systemic / in life observation / clinical signs / [other] + systemic / in life …
[31] = systemic / in life observation / clinical signs / [other] + systemic / in life observation / clinical signs / aggressive behavior

Cc1ccc(N(SC(F)(Cl)Cl)S(=O)(=O)N(C)C)cc1 [Tolylfluanid]
LEL (dog): 62.5 mg/kg/day | LOAEL (dog): 62.5 mg/kg/day | LOAEL (rat [1]; systemic / in life observation / body weight / body weight gain + systemic / in life observation / food consumption / food consumption): 1000 mg/kg/day | LEL (rat [1]; [14]): 1000 mg/kg/day | NEL (rat [1]; [14]): 300 mg/kg/day | NOAEL (rat [1]; [14]): 300 mg/kg/day | LEL (rat [2]; [15]): 83.4 mg/kg/day | LOAEL (rat [2]; [15]): 83.4 mg/kg/day | NEL (rat [2]; [16]): 20.1 mg/kg/day | NOAEL (rat [2]; [16]): 20.1 mg/kg/day | LEL (rat [2]; [17]): 83.4 mg/kg/day | LOAEL (rat [2]; [17]): 83.4 mg/kg/day | NEL (rat [2]; [18]): 20.1 mg/kg/day | NOAEL (rat [2]; [18]): 20.1 mg/kg/day | LEL (rat [2]; [19]): 336 mg/kg/day | LOAEL (rat [2]; [19]): > 336 mg/kg/day | NEL (rat [2]; [19]): 83.4 mg/kg/day | NOAEL (rat [2]; [19]): ≥ 336 mg/kg/day | LOAEL (rat [3]; group: offspring, systemic / in life observation / body weight / offspring (pup) weight + developmental / offspring survival late / [other] / [other]): 375 mg/kg/day | LEL (rat [3]; group: offspring, systemic / in life observation / body weight / offspring (pup) weight + developmental / offspring survival late / [other] / [other] + …): 375 mg/kg/day | NEL (rat [3]; [20]): 75 mg/kg/day | NOAEL (rat [3]; [20]): 75 mg/kg/day | LEL (rat [3]; [17]): 375 mg/kg/day | LOAEL (rat [3]; [17]): 375 mg/kg/day | NEL (rat [3]; [17]): 75 mg/kg/day | NOAEL (rat [3]; [17]): 75 mg/kg/day | LEL (rat [4]; [21]): 57.5 mg/kg/day | LOAEL (rat [4]; [21]): 57.5 mg/kg/day | NEL (rat [4]; [21]): 7.9 mg/kg/day | NOAEL (rat [4]; [21]): 7.9 mg/kg/day | LEL (rat [4]; [18]): 75.2 mg/kg/day | LOAEL (rat [4]; [18]): 75.2 mg/kg/day | NEL (rat [4]; [18]): 9.5 mg/kg/day | NOAEL (rat [4]; [18]): 9.5 mg/kg/day | LEL (rat [4]; [19]): 70.4 mg/kg/day | LOAEL (rat [4]; [19]): 70.4 mg/kg/day | NEL (rat [4]; [19]): 9.1 mg/kg/day | NOAEL (rat [4]; [19]): 9.1 mg/kg/day

CCC12COCN1COC2 [5-Ethyl-1-aza-3,7-dioxabicyclo[3.3.0]octane]
LEL (rat [5]): 50 mg/kg/day | LOAEL (rat [5]): 50 mg/kg/day | LEL (rat [6]; [22]): 650 mg/kg/day | LOAEL (rat [6]; [22]): 650 mg/kg/day | NEL (rat [6]; [22]): 250 mg/kg/day | NOAEL (rat [6]; [22]): 250 mg/kg/day | LEL (rat [6]; [23]): 650 mg/kg/day | LOAEL (rat [6]; [23]): 650 mg/kg/day | NEL (rat [6]; [23]): 250 mg/kg/day | NOAEL (rat [6]; [23]): 250 mg/kg/day | LEL (rat [7]; [24]): 750 mg/kg/day | LOAEL (rat [7]; [24]): 750 mg/kg/day | NEL (rat [7]; [24]): 500 mg/kg/day | NOAEL (rat [7]; [24]): 500 mg/kg/day | LEL (rat [7]; [25]): 500 mg/kg/day | LOAEL (rat [7]; [25]): 500 mg/kg/day | NEL (rat [7]; [26]): 250 mg/kg/day | NOAEL (rat [7]; [26]): 250 mg/kg/day

CC/C(=C(/CC)c1ccc(O)cc1)c1ccc(O)cc1 [Diethylstilbestrol]
LEL (mouse [8]): 0.01 mg/kg/day | LOAEL (mouse [8]): > 0.01 mg/kg/day | NEL (mouse [8]): < 0.01 mg/kg/day | NOAEL (mouse [8]): ≥ 0.01 mg/kg/day | NOAEL (mouse [9]): ≥ 7.5e-09 mg/kg/day | NOAEL (mouse [10]; [15]): ≥ 7.5e-09 mg/kg/day | NOAEL (mouse [10]; group: reproductive, reproductive / reproductive performance / reproductive performance other / NOS + reproductive / reproductive performance / fertility / …): ≥ 7.5e-09 mg/kg/day | LEL (rat [11]; [27]): 0.03 mg/kg/day | LOAEL (rat [11]; [27]): > 0.03 mg/kg/day | NEL (rat [11]; [27]): < 0.03 mg/kg/day | NOAEL (rat [11]; [27]): ≥ 0.03 mg/kg/day | LEL (rat [11]; [28]): 0.03 mg/kg/day | LOAEL (rat [11]; [28]): > 0.03 mg/kg/day | NEL (rat [11]; [28]): < 0.03 mg/kg/day | NOAEL (rat [11]; [28]): ≥ 0.03 mg/kg/day | LEL (mouse [12]; [29]): 0.1 mg/kg/day | LOAEL (mouse [12]; [29]): > 0.1 mg/kg/day | NEL (mouse [12]; [29]): 0.05 mg/kg/day | NOAEL (mouse [12]; [29]): ≥ 0.1 mg/kg/day | LEL (mouse [12]; [23]): 0.0025 mg/kg/day | LOAEL (mouse [12]; [23]): 0.0025 mg/kg/day | NEL (mouse [12]; [23]): < 0.0025 mg/kg/day | NOAEL (mouse [12]; [23]): < 0.0025 mg/kg/day | LOAEL (mouse [13]; [30]): > 0.003 mg/kg/day | NOAEL (mouse [13]; [30]): ≥ 0.003 mg/kg/day | LEL (mouse [13]; [31]): 0.0003 mg/kg/day | NEL (mouse [13]; [31]): < 0.0003 mg/kg/day
